Series [1] is described as follows: Fish embryo acute toxicity (FET): lethality and dysmorphogenesis. To be noted: zebrafish, in vivo, exposure 2 to 72 hpf, read at 72 hpf. Format: in vivo. The procedure: (§1) Zebrafish provide a widely used vertebrate model for cost-effective, in vivo whole-organism screening.
(§2) (2 mM CaCl2•2 H2O; 0.5 mM MgSO4•7 H2O; 0.75 mM NaHCO3; 0.07 mM KCl). The fish were maintained at a temperature of 26 ± 1 °C on a 14-h light and 10-h dark cycle and were fed daily in the morning with Artemia salina, then with commercial flake food in the afternoon (SDS400, Special Diet Services, Dietex, France). For optimal Zebrafish reproduction, we used animals between 6 months and a year old. The day before the eggs were needed, males and females were placed in a breeding tank with plants at a 2:1 male-to-female ratio (usually using 8 males and 4 females in a big breeding tank). The following morning, eggs were collected 30 min after the lights were turned on. […] Fertilized, non-coagulated, and synchronously divided eggs were selected using a stereomicroscope (Motic SMZ168, Motic Hong Kong Ltd., Hong Kong, China) and transferred to 6-well plates (10 embryos/well). The embryos were exposed to freshly prepared tested concentrations of the compound in 0.3× Danieau’s solution. The chemical stock solution was prepared in 100% dimethylsulfoxide (DMSO) and subsequently diluted in Danieau’s buffer with a final DMSO concentration of 1% (v/v). Testing was carried out using five concentrations with a negative control of solvent with 1% of DMSO. Embryos were incubated at 27 ± 1 °C with a light:dark cycle of 14:10 h until 72 h post-fertilization (hpf) under semi-static conditions, as exposure solutions were renewed with freshly prepared solutions every 24 h. • Lethality and dysmorphogenesis evaluation At 24, 48, and 72 hpf, the embryos were observed under a stereomicroscope to assess lethality. […] At the end of the test, dysmorphogenesis was evaluated in the live embryos only. The average lethality and dysmorphogenesis were calculated for 10 embryos per concentration, followed by averaging the results of at least three independent experiments. […] Subsequently, the TER test was conducted according to the protocol described by Guzman et al.. […] The distance was averaged and converted from pixels to millimeters. This assay was performed only on larvae from concentration groups where both the lethality and dysmorphogenesis were less than 20%. Six larvae per concentration group were evaluated in at least three independent experiments. • Statistical analysis Statistical analysis was performed using GraphPad Prism v.10.0.2. The TER test was analyzed using a one-way ANOVA and a post hoc multiple-comparison Dunnett test. The significance threshold was established at p < 0.05.

Another series has as its system Zebrafish embryos. The description is as above. Format: in vivo. The procedure:
as §1, §2

Series [2] can be described thus: Hemolysis assay with human erythrocytes. Format: cell-based. The settings on record: human, washed human erythrocyte suspension, pH 7.4; 10 µg/mL; read-out: degree of hemolysis. The procedure: (§3) In this context, non-hemolytic compounds are essential, as they enhance the safety and efficacy of lactam-based drugs by reducing adverse effects while maintaining their antitumor activity. In accordance with EU regulations (ISO 10993-4), the assessment of the biological compatibility of new compounds that may come into contact with the blood necessitates in vitro hemocompatibility evaluations. In this study, the extent of hemolysis induced by the different compounds was assessed by incubating them with an erythrocyte suspension. The hemolytic response of compounds 1–10 was evaluated at two concentrations (10 and 80 µg/mL), the results of which are presented in Figure 3.
(§4) • In Vitro Assay Using Human Erythrocytes • - Acquisition and Extraction of the Erythrocytes Human blood samples were obtained from the Banc de Sang i Teixits de Barcelona (Spain) from the Catalan Department of Health. Blood was deposited in tubes with the anticoagulant EDTA-K3. Blood samples were centrifuged at 3000 rpm and 4 °C for 10 min (Megafuge 2.0 R. Heraeus Instruments, Hanau, Germany) to induce sedimentation. Plasma was extracted with a Pasteur pipette. Next, the residual pellet was washed with PBS at pH 7.4. This procedure was repeated three times to remove residual leukocytes and platelets and to concentrate the erythrocytes. Following the last wash, the erythrocyte suspension was diluted (1:1) in PBS at pH 7.4 to obtain a suitable erythrocyte suspension (cell density of 8 × 10^9 cell/mL). • - Hemolysis Assay The hemolysis assay determined the capability of different compounds to induce the hemolysis of the erythrocyte membrane. Stock solutions of each compound at 1 mg/mL in PBS at pH 7.4 were prepared. Different volumes (10–80 μL) were placed in polystyrene tubes, and an aliquot of 25 µL of the erythrocyte suspensions was added to each tube. The final volume was 1 mL. The tubes were incubated at room temperature under rotatory conditions. Then, the tubes were centrifuged at 10,000 rpm for 5 min. The supernatants’ absorbance at 540 nm (Shimadzu UV-160A, Shimadzu, Duisburg, Germany) was compared with that of the positive (erythrocytes hemolyzed with distilled water) and negative (erythrocyte suspension in PBS at pH 7.4) controls. The degree of hemolysis was determined using the following equation: Hemolysis (%) = 100 × (Abs − Abs0)/(Abs100 − Abs0) where Abs, Abs0, and Abs100 are the absorbance of the test samples, of the suspension treated with isotonic phosphate–buffered saline (PBS), and of the suspension of complete hemolysis treated with distilled water, respectively. • In Vitro Essay Using Cell Cultures The murine Swiss albino fibroblasts (3T3) and the squamous cell carcinoma (A431) cell lines were obtained from Celltec UB. Cells were grown in DMEM medium (4.5 g/L glucose) supplemented with 10% (v/v) FBS, 2 mM L-glutamine, 100 U/mL penicillin, and 100 µg/mL streptomycin at 37 °C with 5% CO2. Cells were routinely cultured in 75 cm^2 culture flasks and were trypsinized using trypsin–EDTA when the cells reached approximately 80% confluence. The trypan blue assay, which allows for the direct identification and enumeration of the live (unstained) and dead (blue) cells in the cell population, was used to evaluate the viability of the cells in the cell suspension obtained. • - Cell Viability Assays Cell lines of 3T3 (1 × 10^5 cells/mL) and A431 (5 × 10^4 cells/mL) were grown at defined densities in the 60 central wells of a 96-well plate. The cells were incubated for 24 h in 5% CO2 at 37 °C. Then, the spent medium was removed, and the cells were incubated for 24 h, with their corresponding compound solutions (1 mg/mL) previously diluted in a minimum amount of DMF (dimethylformamide) and then in DMEM medium supplemented with 5% FBS (100 µL) at the required concentration range (80 or 250 µg/mL). […]

The next series relates to human erythrocytes. The series is described as follows: Hemolysis assay with human erythrocytes. Format: cell-based. To be noted: from 10 to 80 µg/mL. The procedure: as §3, §4

Molecules are shown by their SMILES. Converted amounts (≈) assume the structure as drawn.

By LC50 is commonly meant the concentration that kills 50% of the test population. Lower therefore signals greater toxicity. By EC50 is commonly meant the concentration needed to bring the measured effect to its halfway point.

`CC(C)(C)N1C(=O)C(Cl)(Cl)C1c1ccccc1` (centres unmarked) [Compound 1] came in with an LC50 in series [1] of 14.9 µg/mL (≈ 54.8 µM). For the same compound, the concentration for a half-maximal effect (EC50) with Zebrafish embryos (Danio rerio, read-out: EC50 (dysmorphogenesis)) is 5.23 µg/mL (≈ 19.2 µM). For the same compound, the “teratogenic index (TI)” value in the series on Zebrafish embryos (TI = LC50/EC50) was determined as 2.85. The teratogenicity classification entry with Zebrafish embryos (TI > 2) is on record as “potential teratogen”. Besides, the morphological abnormalities result in the series with Zebrafish embryos (embryos exposed 2 to 72 hpf) was “pericardial edema, large yolk sacs, and flexion abnormalities”. Also, the “LC50 (lethality)” value in the series with Zebrafish embryos (exposure 2 to 72 hpf, read at 72 hpf) was 14.9 µg/mL (≈ 54.7 µM). Besides, the hemolysis at 10 µg/mL in series [2] amounted to 0.01%. Moreover, in the series on human erythrocytes, the “change of hemolytic response as concentration increased” value was “remained stable”.

Values taken from publication PMC12030062, “From In Vitro Cytotoxicity to In Vivo Zebrafish Assays: A Study on 3,3-Dichloro β-, γ- and δ-Lactams and Their Biological Activity Profiles” (Pharmaceuticals, 2025).
